Results on one molecule are retold here after US10603298B2, “Succinate dehydrogenase inhibitors (SDHi's)” (Medical Research Council, priority 2014, dated 2020).

Data set [1] is described as follows: Malonate level in the ischaemic myocardium after i.v. dimethyl malonate (LC-MS). The arrangement: species or system mouse. The following applies: intravenous infusion of dimethyl malonate in vivo. The method, then:
In addition, as shown in FIG. 5a the cell permeability of the compound may be determined by comparing the level of the compound in an untreated cell with that of a treated cell. Typically, the level of the compound may be determined using LC/MS as detailed in the metabolomic analysis in the Examples.
Infarct size was assessed after 30 min of ischaemia followed by 120 min reperfusion using 2% triphenyltetrazolium chloride staining and is expressed as a percentage of the risk zone^33. […] Control mice were infused with sterile saline. The total volume administered never exceeded 200 μL/mouse.
Equal amounts wet weight murine tissue were lysed in 250 μL extraction solution (ES; 30% acetonitrile, 50% methanol and 20% water) per 10 mg tissue in Precellysis 24 vials, following the manufacturer's instructions. […] For the LC separation, column A was Sequant Zic-Hilic (150 mm×4.6 mm, internal diameter 3.5 μm) with a guard column (20 mm×2.1 mm 3.5 μm) from HiChrom, Reading, UK. […] Gradient: 0-3 min 80% B, 25 min 20% B, 26 min 80% B, 36 min 80% B. Column B was sequant Zic-pHilic (150 mm×2.1 mm i.d. 3.5 μm) with guard column (20 mm×2.1 mm i.d. […]) from HiChrom, Reading, UK. […] Spectra were analysed using both targeted and untargeted approaches. […] The arrays of spectra were then statistically analysed using the functions explore.data and univariate of the R package mum a^40.

For data set [2], the system named is mouse heart IR injury (myocardial infarction). Nature of the data set: In vivo mouse cardiac IR injury (LAD ligation), infarct size by triphenyltetrazolium chloride staining. The following applies: i.v. infusion 4 mg/kg/min prior to and throughout ischaemia. Here is the method:
For the in vivo heart IR model an open-chest, in situ heart model was used^31,32. Male mice (8-10 weeks; Charles River Laboratories, UK) were anaesthetised with sodium pentobarbital (70 mg/kg intraperitoneally (i.p.)), intubated endotracheally and ventilated with 3 cm H2O positive-end expiratory pressure. Adequacy of anaesthesia was monitored using corneal and withdrawal reflexes. Ventilation frequency was kept at 110 breaths per minute with tidal volume between 125-150 μL. A thoracotomy was performed and the heart exposed by stripping the pericardium. A prominent branch of the left anterior descending coronary artery (LAD) was surrounded by a 7-0 Prolene suture that was then passed through a small plastic tube. Ischaemia was induced by tightening the tubing against the heart surface. To assess metabolites during IR in vivo, mice were divided into three groups: 30 min ischaemia, 30 min ischaemia plus 5 min reperfusion and 30 min sham-operation in which the suture was placed but the LAD was not occluded. At the end of each protocol tissue was removed from the at risk and peripheral areas of the heart, selected visually by comparing white versus red tissue, and snap-frozen in liquid nitrogen. […] Infarct size was assessed after 30 min of ischaemia followed by 120 min reperfusion using 2% triphenyltetrazolium chloride staining and is expressed as a percentage of the risk zone^33. […]

Regarding `COC(=O)CC(=O)OC` [dimethyl malonate], the “accumulation of malonate in the ischaemic myocardium” value in data set [1] was “results in accumulation of malonate”. In addition, the “protection against cardiac IR injury (infarct size)” value in data set [2] is recorded as “protective”.
